Test results from patent publication US20090012148A1, “REDUCING CELLULAR CHOLESTEROL LEVELS AND/OR TREATING OR PREVENTING PHOSPHOLIPIDOSIS” (priority 2005, published 2009).
“Also recorded” adds a separate entry of the source.

Assays:
CT60 cells [1] = assay: Gas chromatography cholesterol assay; format: cell-based, Chinese hamster; settings: 10 μM, FC = free cholesterol
Description: The cholesterol lowering effect of the 14 hit compounds identified by filipin labeling was measured by an alternative chemical method that involved GC separation of solvent-extracted cellular lipids (43). CT60 cells were treated with compounds at 10 μM under the same conditions as in the screening assays. Since the GC assay estimates FC content per cell, the values are compared to the average filipin intensity assay (Table 1).
CT60 or CT43 cells were plated on day 1 in 6-well plates. Hit compounds were added to the cells at 10 μM concentration. Cells were incubated for 24 h. Cellular lipids were extracted with hexane: iso-propyl alcohol (3:2 v/v). The lipid extracts were dried and re-suspended in hexane followed by separation on gas chromatograph using β-sitosterol as an internal standard.
Procedure: CT60 cells were plated in 6-well plates in Ham's F-12/1.176 g/L sodium bicarbonate/2 g/L glucose/10% FBS. Following 24 h incubation, cells were treated with 10 μM of each compounds, medium being replaced with Ham's F-12/1.176 g/L sodium bicarbonate/2 g/L glucose/5.5% FBS/20 mM HEPES. The change of the medium in the wells was performed to have experimental conditions similar to those used for the screening once chemical compounds were added to the cells. After 18 h treatment with compounds, cells were washed twice with Hank's balanced salt solutions (HBSS). Cellular lipids were extracted with hexane/isopropyl alcohol (3:2 v/v) (43) dried and resuspended in hexane followed by separation on a gas chromatograph (GC) using following conditions. A Hewlett Packard GC model HP 5890 series II (Palo Alto, Calif.) equipped with a flame ionization detector, split-splitless injector, and 15 m×0.53 mm HP-5 capillary column coated with […] film thickness of 5% phenyl methyl siloxane was used to separate free cholesterol. The injection temperature was maintained at 255° C. and oven temperature was held isothermally at 260° C. using helium as a mobile phase at 30 mL/min flow rate. The free cholesterol (FC) was quantified using beta-sitosterol as internal standard to correct for lipid losses during extraction.

CT60 cells [2] = assay: Filipin binding assay, average filipin intensity and staining pattern; format: cell-based, Chinese hamster; settings: 10 μM; for Average filipin intensity Fraction of control: 14 hit compounds from primary library
Description: We developed assays for correction of the NPC phenotype in CHO cell lines using filipin, which binds to non-esterified cholesterol and has been used to visualize the free cholesterol content in NPC cells. The initial screens were carried out in CT60 cells, which express a mutated hamster NPC1 protein and a gain of function mutation in SCAP (42). These cells cannot traffic LDL-derived cholesterol out of late endosomes, and large amounts of cholesterol accumulate in LSO compartments. FIGS. 1A-B show images of filipin staining in a control CHO cell line, TRVb1 (45) (FIG. 1A) and in CT60 cells (FIG. 1B). It can be seen that the CT60 cells show much more filipin staining than control cells and that the fluorescence in CT60 cells is concentrated in peri-nuclear organelles.
For screening, images were acquired using a Discovery-1 automated microscopy system with a 10× objective and corrected for background and shading as described in Methods. Two thresholds were set for filipin staining, a low threshold to include all cell areas, and a high threshold for the strong filipin staining in the peri-nuclear LSOs. The threshold values were set for each plate from analysis of 64 images in 32 wells of untreated CT60 cells. […] In developing the low threshold, we compared the outlines based on the thresholded cell images with transmitted light images, and the thresholds provided good agreement with the transmitted light cell boundaries.
As a simple measure of the intensity of filipin staining, we measured the filipin intensity per pixel above the threshold. The conditions of filipin labeling (time and concentration) were adjusted to optimize the discrimination between the CT60 cells and control TRVb1 cells. […] The quality of the assay for screening is expressed in terms of a statistical parameter Z′(46):
Using the above screening technique, we screened a library of 14,956 compounds added to cells for 16 hours at a final concentration of 10 μM, using a single well for each compound. Prior to application of the compounds, cells were grown in normal tissue culture medium containing 10% FBS, so the LSOs were filled with cholesterol (FIG. 1B). The cells were then imaged and analyzed using the average filipin intensity assay and the LSO compartment assay. In general, the two analyses identified similar compounds that reduced the filipin labeling.
Compound addition: The library compounds were formatted for screening in the Rockefeller University High Throughput Screening Facility. Cells were treated with the compounds from the chemical library one day after plating. We added […] of each compound (5 mM stock in DMSO) to 25 μl of screening Medium S composed of medium A supplemented with 1% FBS and 20 mM 4-(2-hydroxyethyl)-1-pipiperazine ethane sulphonic acid (HEPES) in Falcon 384-well V-bottomed polypropylene plates using a Packard MiniTrak™ robotic liquid handling system. To obtain ˜10 μM final concentration, 23 μl of the premixed compounds were dispensed into the plates containing cells and […] of culture medium A. For primary screening, 352 test compounds were added to each plate, and the remaining 32 wells were used as a control with only DMSO added. All plates were incubated with compounds for 16 h at 37° C. Plates were then washed three times with phosphate buffered saline pH 7.4 (PBS) using a Bio-Tek Elx405 plate washer (Bio-Tek Instruments Inc., Winooski, Vt.). For each wash cycle, […] of PBS was dispensed followed by aspiration with a residual volume of 16 μl per well. Finally, cells were fixed with 1.5% PFA in PBS for 20 min at room temperature, followed by 3 more washes with PBS.
Fluorescence labeling. To the fixed cells, filipin was added at a final concentration of 50 μg/ml in PBS for 45 m at room temperature to label free cholesterol. Cells were finally washed three times with PBS, and images were acquired immediately after labeling. […]

normal human fibroblasts [3] = assay: Filipin staining of normal human fibroblasts; format: cell-based; settings: data not shown
Description: These cells show rearrangements that may indicate that cholesterol has been redirected to a different compartment or that the morphology of the LSOs themselves has been changed (compound 1-c-3, FIG. 4C).
(§1) Normal human fibroblasts (GM5659E) were grown in MEM with 1% P/S and 10% FBS. For microscopy, fibroblasts were plated in normal growth medium on glass-bottomed 35 mm dishes or in 384-well plates.

normal human fibroblasts [4] = assay: Filipin LSO ratio assay on U18666A-treated normal human fibroblasts; format: cell-based; settings: 250 nM or 500 nM, 20 hours
Description: FIG. 12 depicts the effect of 7 compounds (2-a-1, 2-a-3, 2-a-8, 2-a-9, 2-a-12, 2-a-13, 2-a-15) from the second library on U18666A-treated normal human fibroblasts. Normal human fibroblasts were plated in 384 well plates and grown in regular growth medium for 24 h, after which the cells were treated with compound U18666A (500 nM or 250 nM) in screening medium for 4 h. The cells were then further incubated overnight with hit compounds (10 μM) in the continued presence of U18666A. Finally, cells were washed three times with PBS, fixed with 1.5% PFA, washed with PBS and stained with filipin. Images were acquired using the Discovery1 microscope at 10× magnification and analyzed for the LSO ratio. Solid horizontal lines are the mean for U18666A-treated cells at each concentration, and the dotted horizontal lines indicate −3 SD.
as §1
Normalized values were obtained by dividing the values in the presence of each compound by the values obtained in presence of solvent control for each plate. Similar methods were used to analyze the effects of compounds on human fibroblasts treated with U18666A to induce cholesterol retention in LSOs. […]

## Nc1c(Sc2ccccc2)cc(Sc2ccccc2)c2c1C(=O)c1ccccc1C2=O [Compound 1-a-1]
CT60 cells [1]
  μg FC/μg Protein by GC Fraction of control: 1.02 ± 0.03 Fraction of control
CT60 cells [2]
  Average filipin intensity Fraction of control: 0.87 ± 0.04 Fraction of control

## C=CCN1C(=O)C(=CC=Cc2ccc(N(C)C)cc2)SC1=S [Compound 1-a-2]
CT60 cells [1]
  μg FC/μg Protein by GC Fraction of control: 1.15 ± 0.05 Fraction of control
CT60 cells [2]
  Average filipin intensity Fraction of control: 0.88 ± 0.04 Fraction of control

## CCOc1ccc(NN=C2C(=O)N(c3nc(-c4ccccc4)cs3)N=C2c2ccccc2)cc1 [Compound 1-a-3]
CT60 cells [1]
  μg FC/μg Protein by GC Fraction of control: 1.27 ± 0.07 Fraction of control
CT60 cells [2]
  Average filipin intensity Fraction of control: 0.95 ± 0.04 Fraction of control

## COc1ccccc1NN=C1C(=O)N(c2nc(-c3ccc(Cl)cc3)cs2)N=C1C [Compound 1-a-4]
CT60 cells [1]
  μg FC/μg Protein by GC Fraction of control: 0.87 ± 0.07 Fraction of control
CT60 cells [2]
  Average filipin intensity Fraction of control: 1.01 ± 0.04 Fraction of control

## O=C1C(=Cc2ccc(-c3ccc(Cl)c(Cl)c3)o2)C=C(c2ccccc2)N1c1ccc(O)cc1 [Compound 1-a-5]
CT60 cells [1]
  μg FC/μg Protein by GC Fraction of control: 1.18 ± 0.06 Fraction of control
CT60 cells [2]
  Average filipin intensity Fraction of control: 0.89 ± 0.04 Fraction of control

## O=C1C(=Cc2ccc(-c3ccc(Cl)c(Cl)c3)o2)C=C(c2ccccc2)N1c1ccccc1O [Compound 1-a-6]
CT60 cells [1]
  μg FC/μg Protein by GC Fraction of control: 1.37 ± 0.01 Fraction of control
CT60 cells [2]
  Average filipin intensity Fraction of control: 0.92 ± 0.04 Fraction of control

## O=C1C(=Cc2ccc(-c3cc(Cl)ccc3Cl)o2)C=C(c2ccccc2)N1c1ccc(O)cc1 [Compound 1-a-7]
CT60 cells [1]
  μg FC/μg Protein by GC Fraction of control: 1.04 ± 0.13 Fraction of control
CT60 cells [2]
  Average filipin intensity Fraction of control: 0.89 ± 0.04 Fraction of control

## O=C1C(=Cc2ccc(-c3ccc(Br)cc3)o2)C=C(c2ccccc2)N1c1ccc(O)cc1 [Compound 1-a-8]
CT60 cells [1]
  μg FC/μg Protein by GC Fraction of control: 1.31 ± 0.10 Fraction of control
CT60 cells [2]
  Average filipin intensity Fraction of control: 0.90 ± 0.04 Fraction of control

## O=C1Nc2ccccc2C1=NNc1nc(N2CCCCC2)nc(N2CCCCC2)n1 [Compound 1-a-9]
CT60 cells [1]
  μg FC/μg Protein by GC Fraction of control: 0.86 ± 0.07 Fraction of control
CT60 cells [2]
  Average filipin intensity Fraction of control: 0.99 ± 0.04 Fraction of control

## Cc1cc([N+](=O)[O-])ccc1NC(=O)CC1SC(=Nc2ccccc2)N(c2ccccc2)C1=O (stereo not shown) [Compound 1-a-10]
CT60 cells [1]
  μg FC/μg Protein by GC Fraction of control: 1.23 ± 0.08 Fraction of control
CT60 cells [2]
  Average filipin intensity Fraction of control: 0.96 ± 0.04 Fraction of control

## CCOC(=O)c1sc(NC(=O)c2ccccc2C)nc1-c1ccccc1 [Compound 1-a-11]
CT60 cells [1]
  μg FC/μg Protein by GC Fraction of control: 0.82 ± 0.07 Fraction of control
CT60 cells [2]
  Average filipin intensity Fraction of control: 0.90 ± 0.04 Fraction of control

## CN(C)c1cc(NN=Cc2cccs2)nc(N(C)C)n1 [Compound 1-a-12]
CT60 cells [1]
  μg FC/μg Protein by GC Fraction of control: 0.73 ± 0.03 Fraction of control
CT60 cells [2]
  Average filipin intensity Fraction of control: 0.91 ± 0.04 Fraction of control

## O=C(O)c1ccc(N2C(=O)C(=Cc3ccc(-c4ccc(Br)cc4)o3)C=C2c2ccccc2)cc1 [Compound 1-a-13]
CT60 cells [1]
  μg FC/μg Protein by GC Fraction of control: 1.54 ± 0.11 Fraction of control
CT60 cells [2]
  Average filipin intensity Fraction of control: 0.97 ± 0.04 Fraction of control

## Clc1ccccc1N1N=C(C=Cc2cccs2)CC1c1cccs1 (stereo not shown) [Compound 1-b-2]
CT60 cells [2]
  change in filipin intensity: increase in filipin intensity; also recorded: increased filipin intensity

## CC(C)(C)c1ccc(C(=O)Nc2ccc(-c3nc4ccccc4o3)c(O)c2)cc1 [Compound 1-b-4]
Normal human fibroblasts [3]
  effect on filipin staining compared with CT60 cells: similar
CT60 cells [2]
  change in filipin intensity: significant increase; also recorded: increased filipin-intensity; also recorded: increased filipin intensity
  morphological change of the filipin staining pattern: filamentous or tubular staining; also recorded: induced morphological changes; also recorded: bright swirls of filipin staining

## CCN(CC)C(=O)CCN1C(=O)C(=Cc2ccc(F)cc2)SC1=S [Compound 1-c-2]
CT60 cells [2]
  change in filipin intensity: no significant change
  morphological change of the filipin staining pattern: more compact LSOs; also recorded: morphological changes

## CC1=NN(c2ccccc2)C(=O)C1=NNc1ccccc1C(=O)O [Compound 1-c-3]
CT60 cells [2]
  morphological change of the filipin staining pattern: peri-nuclear clusters of LSOs in mutant cells to become more dispersed; also recorded: morphological changes; also recorded: large network of apparently tubular organelles

## CCN(CC)CCO[C@H]1CC[C@@]2(C)C(=CC[C@@H]3[C@@H]2CC[C@]2(C)C(=O)CC[C@@H]32)C1 [Compound U18666A]
Normal human fibroblasts [4]
  cholesterol accumulation by filipin staining and LSO compartment ratio: significant increase
